Target: T1, Human TREM2 (Homo sapiens, UniProt Q9NZC2)
T1 construct: expressed in transfected cells
Assay: Human TREM2 activity: cellular phosphorylation of Syk (AlphaLISA SureFire Ultra p-SYK) in HEK293/DAP12+TREM2 stable cell line
Assay type: cell-based
Settings: for Emax: HEK293, maximal response relative to reference agonist example 1B (remaining examples), read-out: Emax; for EC50: phospho-Syk AlphaLISA signal, HEK293/DAP12+TREM2 cells, concentration giving 50% of maximal response, read-out: EC50
Method in brief: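 The read-out was p-Syk (Tyr525/526), measured by AlphaLISA in lysates of a stable HEK293/DAP12+TREM2 clone. Cells (10,000/well, plated the day before) received compound for 30 min at 37 °C. Dosing used 8 points in quadruplicate, top 100 μM with 1:6 dilution, 0.5% final DMSO.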

T1 sequence (Q9NZC2 19-230): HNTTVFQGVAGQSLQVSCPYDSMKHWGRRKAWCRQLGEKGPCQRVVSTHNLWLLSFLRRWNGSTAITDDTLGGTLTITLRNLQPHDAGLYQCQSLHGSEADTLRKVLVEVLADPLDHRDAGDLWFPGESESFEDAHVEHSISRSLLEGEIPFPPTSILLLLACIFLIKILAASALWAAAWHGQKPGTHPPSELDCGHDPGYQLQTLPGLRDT
T1 sequence (O43914 22-113 partner): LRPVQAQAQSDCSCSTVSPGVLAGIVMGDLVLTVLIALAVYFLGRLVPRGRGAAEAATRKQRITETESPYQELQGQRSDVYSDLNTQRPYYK

| SMILES | Emax [%] | EC50 [µM] |
| --- | --- | --- |
| Cc1nc2c(-c3ccc(Cl)cc3F)nc(N3C[C@@H](c4cnn(C)c4)OC4(CC4)C3)cc2c(=O)n1C (single isomer, unassigned) [Example 144A] | 75 to 110 | 0.001 to 0.01 |
| Cc1nc2c(-c3ccc(Cl)cc3F)nc(N3C[C@H](c4cnn(C)c4)OC4(CC4)C3)cc2c(=O)n1C (single isomer, unassigned) [Example 144B] | < 75 | 0.01 to 0.1 |
| Cc1nc2c(-c3ccc(C(F)(F)F)cc3F)nc(N3C[C@@H](c4cnn(C)c4)OC4(CC4)C3)cc2c(=O)n1C (single isomer, unassigned) [Example 145A] | 75 to 110 | 0.001 to 0.01 |
| Cc1nc2c(-c3ccc(C(F)(F)F)cc3F)nc(N3C[C@H](c4cnn(C)c4)OC4(CC4)C3)cc2c(=O)n1C (single isomer, unassigned) [Example 145B] | < 75 | 0.01 to 0.1 |
| Cc1nc2c(-c3cc(F)c(F)cc3F)nc(N3C[C@@H](c4cnn(C)c4)OC4(CC4)C3)cc2c(=O)n1C (single isomer, unassigned) [Example 146A] | 75 to 110 | 0.01 to 0.1 |
| Cc1nc2c(-c3cc(F)c(F)cc3F)nc(N3C[C@H](c4cnn(C)c4)OC4(CC4)C3)cc2c(=O)n1C (single isomer, unassigned) [Example 146B] | < 75 | > 1 |
| Cc1nc2c(-c3ccc(Cl)cc3F)nc(N3C[C@@H](c4cnn(C)n4)OC(C)(C)C3)cc2c(=O)n1C (single isomer, unassigned) [Example 147A] | < 75 | 0.01 to 0.1 |
| Cc1nc2c(-c3ccc(Cl)cc3F)nc(N3C[C@H](c4cnn(C)n4)OC(C)(C)C3)cc2c(=O)n1C (single isomer, unassigned) [Example 147B] | 75 to 110 | 0.1 to 1 |
| Cc1nc2c(-c3ccc(Cl)cc3F)nc([C@@H]3C[C@@H]3c3cnn(C)c3)cc2c(=O)n1C (single isomer, unassigned) [Example 148A] | < 75 | > 1 |
| Cc1nc2c(-c3ccc(Cl)cc3F)nc([C@@H]3C[C@H]3c3cnn(C)c3)cc2c(=O)n1C (single isomer, unassigned) [Example 148B] | < 75 | > 1 |
| Cc1nc2c(-c3ccc(Cl)cc3F)nc(N3C[C@@H](c4cnn(C)c4)OC(F)(F)C3)nc2c(=O)n1C (single isomer, unassigned) [Example 149A] | 75 to 110 | < 0.001 |
| Cc1nc2c(-c3ccc(Cl)cc3F)nc(N3C[C@H](c4cnn(C)c4)OC(F)(F)C3)nc2c(=O)n1C (single isomer, unassigned) [Example 149B] | < 75 | 0.01 to 0.1 |
| Cc1nc2c(-c3cc(F)c(F)cc3F)nc(N3C[C@@H](c4cnn(C)c4)OC(C)(C)C3)cc2c(=O)n1C (single isomer, unassigned) [Example 150A] | 75 to 110 | 0.01 to 0.1 |
| Cc1nc2c(-c3cc(F)c(F)cc3F)nc(N3C[C@H](c4cnn(C)c4)OC(C)(C)C3)cc2c(=O)n1C (single isomer, unassigned) [Example 150B] | < 75 | > 1 |
| Cc1nc2c(-c3ccc(Cl)cc3F)nc(N3C[C@@H](c4cnn(C)c4)OC4(CCC4)C3)cc2c(=O)n1C (single isomer, unassigned) [Example 151A] | 75 to 110 | 0.001 to 0.01 |
| Cc1nc2c(-c3ccc(Cl)cc3F)nc(N3C[C@H](c4cnn(C)c4)OC4(CCC4)C3)cc2c(=O)n1C (single isomer, unassigned) [Example 151B] | < 75 | 0.1 to 1 |
| Cc1nc2c(-c3cc(F)c(F)cc3F)nc(N3C[C@@H](c4cnn(C)c4)OC4(CCC4)C3)cc2c(=O)n1C (single isomer, unassigned) [Example 152A] | 75 to 110 | 0.1 to 1 |
| Cc1nc2c(-c3cc(F)c(F)cc3F)nc(N3C[C@H](c4cnn(C)c4)OC4(CCC4)C3)cc2c(=O)n1C (single isomer, unassigned) [Example 152B] | < 75 | > 1 |
| Cc1nc2c(-c3ccc(C(F)(F)F)cc3F)nc([C@@H]3CCO[C@H](c4cnn(C5CC5)c4)C3)cc2c(=O)n1C (single isomer, unassigned) [Example 153A] | > 110 | 0.001 to 0.01 |
| Cc1nc2c(-c3ccc(C(F)(F)F)cc3F)nc([C@H]3CCO[C@@H](c4cnn(C5CC5)c4)C3)cc2c(=O)n1C (single isomer, unassigned) [Example 153B] | < 75 | 0.1 to 1 |
| Cc1cc([C@@H]2CN(c3nc(-c4ccc(F)cc4F)c4nc(C(F)(F)F)n(C)c(=O)c4n3)CCO2)ccn1 (single isomer, unassigned) [Example 154A] | 75 to 110 | < 0.001 |
| Cc1cc([C@H]2CN(c3nc(-c4ccc(F)cc4F)c4nc(C(F)(F)F)n(C)c(=O)c4n3)CCO2)ccn1 (single isomer, unassigned) [Example 154B] | 75 to 110 | 0.01 to 0.1 |
| Cc1cc([C@@H]2CN(c3nc(-c4cc(F)c(F)cc4F)c4nc(C(F)(F)F)n(C)c(=O)c4n3)CCO2)ccn1 (single isomer, unassigned) [Example 155A] | 75 to 110 | < 0.001 |
| Cc1cc([C@H]2CN(c3nc(-c4cc(F)c(F)cc4F)c4nc(C(F)(F)F)n(C)c(=O)c4n3)CCO2)ccn1 (single isomer, unassigned) [Example 155B] | 75 to 110 | 0.01 to 0.1 |
| Cc1nc2c(-c3ccc(F)cc3F)nc(N3C[C@@H](c4cnn(C)c4)OC(F)(F)C3)nc2c(=O)n1C (single isomer, unassigned) [Example 156A] | 75 to 110 | 0.001 to 0.01 |
| Cc1nc2c(-c3ccc(F)cc3F)nc(N3C[C@H](c4cnn(C)c4)OC(F)(F)C3)nc2c(=O)n1C (single isomer, unassigned) [Example 156B] | 75 to 110 | 0.01 to 0.1 |
| Cc1cc([C@@H]2CN(c3cc4c(=O)n(C)c(C)nc4c(-c4ccc(F)cc4F)n3)CC(C)(C)O2)ccn1 (single isomer, unassigned) [Example 159A] | 75 to 110 | 0.001 to 0.01 |
| Cc1cc([C@H]2CN(c3cc4c(=O)n(C)c(C)nc4c(-c4ccc(F)cc4F)n3)CC(C)(C)O2)ccn1 (single isomer, unassigned) [Example 159B] | < 75 | 0.1 to 1 |

The next lines start with the values.

| Emax [%] | EC50 [µM] | SMILES |
| --- | --- | --- |
| 75 to 110 | 0.001 to 0.01 | Cc1cc([C@@H]2CN(c3cc4c(=O)n(C)c(C)nc4c(-c4cc(F)c(F)cc4F)n3)CC(C)(C)O2)ccn1 (single isomer, unassigned) [Example 160A] |
| < 75 | 0.1 to 1 | Cc1cc([C@H]2CN(c3cc4c(=O)n(C)c(C)nc4c(-c4cc(F)c(F)cc4F)n3)CC(C)(C)O2)ccn1 (single isomer, unassigned) [Example 160B] |
| < 75 | 0.1 to 1 | Cc1cc([C@@H]2CN(c3cc4c(=O)n(C)c(C)nc4c(-c4ccc(C(F)(F)F)nc4)n3)CC(C)(C)O2)ccn1 (single isomer, unassigned) [Example 161A] |
| 75 to 110 | 0.001 to 0.01 | Cc1cc([C@H]2CN(c3cc4c(=O)n(C)c(C)nc4c(-c4ccc(C(F)(F)F)nc4)n3)CC(C)(C)O2)ccn1 (single isomer, unassigned) [Example 161B] |
| 75 to 110 | 0.001 to 0.01 | Cn1cc([C@@H]2CN(c3nc(-c4cc(F)c(F)cc4F)c4nc(C(F)(F)F)n(C)c(=O)c4n3)CC3(CC3)O2)cn1 (single isomer, unassigned) [Example 162A] |
| < 75 | 0.01 to 0.1 | Cn1cc([C@H]2CN(c3nc(-c4cc(F)c(F)cc4F)c4nc(C(F)(F)F)n(C)c(=O)c4n3)CC3(CC3)O2)cn1 (single isomer, unassigned) [Example 162B] |
| < 75 | 0.1 to 1 | Cc1cc([C@@H]2CN(c3cc4c(=O)n(C)c(C)nc4c(-c4ccc(C(F)(F)F)cc4F)n3)CC(C)(C)O2)ccn1 (single isomer, unassigned) [Example 163A] |
| 75 to 110 | 0.001 to 0.01 | Cc1cc([C@H]2CN(c3cc4c(=O)n(C)c(C)nc4c(-c4ccc(C(F)(F)F)cc4F)n3)CC(C)(C)O2)ccn1 (single isomer, unassigned) [Example 163B] |
| 75 to 110 | 0.01 to 0.1 | Cc1cc([C@@H]2CN(c3nc(-c4ccc(C(F)(F)F)nc4)c4nc(C)n(C)c(=O)c4n3)CC(C)(C)O2)ccn1 (single isomer, unassigned) [Example 164A] |
| < 75 | 0.001 to 0.01 | Cc1cc([C@H]2CN(c3nc(-c4ccc(C(F)(F)F)nc4)c4nc(C)n(C)c(=O)c4n3)CC(C)(C)O2)ccn1 (single isomer, unassigned) [Example 164B] |
| 75 to 110 | 0.001 to 0.01 | Cn1cc([C@@H]2CN(c3nc(-c4ccc(F)cc4F)c4nc(C(F)(F)F)n(C)c(=O)c4n3)CC3(CC3)O2)cn1 (single isomer, unassigned) [Example 165A] |
| 75 to 110 | 0.01 to 0.1 | Cn1cc([C@H]2CN(c3nc(-c4ccc(F)cc4F)c4nc(C(F)(F)F)n(C)c(=O)c4n3)CC3(CC3)O2)cn1 (single isomer, unassigned) [Example 165B] |
| 75 to 110 | 0.001 to 0.01 | Cc1nc2c(-c3ccc(F)cc3F)nc(N3C[C@@H](c4cnn(C)c4)OC(F)(F)C3)cc2c(=O)n1C (single isomer, unassigned) [Example 166A] |
| < 75 | 0.01 to 0.1 | Cc1nc2c(-c3ccc(F)cc3F)nc(N3C[C@H](c4cnn(C)c4)OC(F)(F)C3)cc2c(=O)n1C (single isomer, unassigned) [Example 166B] |
| < 75 | 0.1 to 1 | Cc1cc([C@@H]2C[C@H](c3cc4c(=O)n(C)c(C)nc4c(-c4ccc(C(F)(F)F)cc4F)n3)CCO2)ccn1 (single isomer, unassigned) [Example 168A] |
| 75 to 110 | 0.001 to 0.01 | Cc1cc([C@H]2C[C@@H](c3cc4c(=O)n(C)c(C)nc4c(-c4ccc(C(F)(F)F)cc4F)n3)CCO2)ccn1 (single isomer, unassigned) [Example 168B] |
